#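 GI50 = concentration required for 50% inhibition of growth. TGI denotes the concentration required for complete inhibition of growth.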
# Assays:
# Experiment in all cases: NCI-60 cell line screen, 384-well format
# SF-295 CNS = tested on: SF-295 CNS
# CAKI-1 renal = tested on: CAKI-1 renal
# UACC-62 melanoma = tested on: UACC-62 melanoma
# NCI-H23 lung = tested on: NCI-H23 lung
# RPMI-8226 leukemia = tested on: RPMI-8226 leukemia
# SK-MEL-28 melanoma = tested on: SK-MEL-28 melanoma
# NCI-H460 NSCLC = tested on: NCI-H460 NSCLC
# ACHN renal = tested on: ACHN renal
# MOLT-4 leukemia = tested on: MOLT-4 leukemia
# M14 melanoma = tested on: M14 melanoma
# OVCAR-3 ovarian = tested on: OVCAR-3 ovarian
# 786-0 renal = tested on: 786-0 renal
# UACC-257 melanoma = tested on: UACC-257 melanoma
# T-47D breast = tested on: T-47D breast
# HOP-92 NSCLC = tested on: HOP-92 NSCLC
# SK-MEL-2 melanoma = tested on: SK-MEL-2 melanoma
# SF-268 CNS = tested on: SF-268 CNS
# MDA-MB-231 breast = tested on: MDA-MB-231 breast
# HS 578T breast = tested on: HS 578T breast
# SR leukemia = tested on: SR leukemia
# DU-145 prostate = tested on: DU-145 prostate
# LOX IMVI melanoma = tested on: LOX IMVI melanoma
# MALME-3M melanoma = tested on: MALME-3M melanoma
# SN12C renal = tested on: SN12C renal
# CCRF-CEM leukemia = tested on: CCRF-CEM leukemia
# NCI-H322M lung = tested on: NCI-H322M lung
# SK-OV-3 ovarian = tested on: SK-OV-3 ovarian
# HCT-15 colon = tested on: HCT-15 colon
# EKVX NSCLC = tested on: EKVX NSCLC
# HOP-62 NSCLC = tested on: HOP-62 NSCLC
# A498 renal = tested on: A498 renal
# A549 NSCLC = tested on: A549 NSCLC
# OVCAR-5 ovarian = tested on: OVCAR-5 ovarian
# SNB-19 CNS = tested on: SNB-19 CNS
# UO-31 renal = tested on: UO-31 renal
# COLO 205 colon = tested on: COLO 205 colon
# MDA-MB-468 breast = tested on: MDA-MB-468 breast
# HL-60(TB) leukemia = tested on: HL-60(TB) leukemia
# NCI/ADR-RES ovarian = tested on: NCI/ADR-RES ovarian
# HCC-2998 colon = tested on: HCC-2998 colon
# RXF 393 renal = tested on: RXF 393 renal
# SK-MEL-5 melanoma = tested on: SK-MEL-5 melanoma
# KM12 colon = tested on: KM12 colon
# U251 glioblastoma = tested on: U251 glioblastoma
# OVCAR-8 ovarian = tested on: OVCAR-8 ovarian
# NCI-H522 lung = tested on: NCI-H522 lung
# NCI-H226 lung = tested on: NCI-H226 lung
smiles,measurement,setting,value
O=C(Nc1cccc(NS(=O)(=O)c2ccc(F)cc2)c1)c1ccc(-c2ccccc2)cc1,GI50,SF-295 CNS,2.79 µM
same,TGI,SF-295 CNS,10.1 µM
same,GI50,CAKI-1 renal,5.85 µM
same,TGI,CAKI-1 renal,26.6 µM
same,GI50,UACC-62 melanoma,3.38 µM
same,TGI,UACC-62 melanoma,15 µM
same,GI50,NCI-H23 lung,2.53 µM
same,TGI,NCI-H23 lung,8.44 µM
same,GI50,RPMI-8226 leukemia,1.47 µM
same,TGI,RPMI-8226 leukemia,3.75 µM
same,GI50,SK-MEL-28 melanoma,17.1 µM
same,TGI,SK-MEL-28 melanoma,38.5 µM
same,GI50,NCI-H460 NSCLC,3.23 µM
same,TGI,NCI-H460 NSCLC,10.4 µM
same,GI50,ACHN renal,4.13 µM
same,TGI,ACHN renal,21.6 µM
same,GI50,MOLT-4 leukemia,1.81 µM
same,TGI,MOLT-4 leukemia,3.64 µM
same,GI50,M14 melanoma,6.38 µM
same,TGI,M14 melanoma,19.5 µM
same,GI50,OVCAR-3 ovarian,7.05 µM
same,TGI,OVCAR-3 ovarian,20 µM
same,GI50,786-0 renal,2.95 µM
same,TGI,786-0 renal,10.6 µM
same,GI50,UACC-257 melanoma,4.02 µM
same,TGI,UACC-257 melanoma,16.7 µM
same,GI50,T-47D breast,2.03 µM
same,TGI,T-47D breast,9.91 µM
same,GI50,HOP-92 NSCLC,2.94 µM
same,TGI,HOP-92 NSCLC,8.32 µM
same,GI50,SK-MEL-2 melanoma,12.9 µM
same,TGI,SK-MEL-2 melanoma,26.3 µM
same,GI50,SF-268 CNS,3.93 µM
same,TGI,SF-268 CNS,17.2 µM
same,GI50,MDA-MB-231 breast,3.72 µM
same,TGI,MDA-MB-231 breast,18.3 µM
same,GI50,HS 578T breast,3.7 µM
same,TGI,HS 578T breast,15.3 µM
same,GI50,SR leukemia,1.76 µM
same,TGI,SR leukemia,3.31 µM
same,GI50,DU-145 prostate,4.44 µM
same,TGI,DU-145 prostate,26.5 µM
same,GI50,LOX IMVI melanoma,3.31 µM
same,TGI,LOX IMVI melanoma,11.4 µM
same,GI50,MALME-3M melanoma,4.23 µM
same,TGI,MALME-3M melanoma,17.4 µM
same,GI50,SN12C renal,3.45 µM
same,TGI,SN12C renal,11.8 µM
same,GI50,CCRF-CEM leukemia,2.33 µM
same,TGI,CCRF-CEM leukemia,5.8 µM
same,GI50,NCI-H322M lung,3.9 µM
same,TGI,NCI-H322M lung,19.7 µM
same,GI50,SK-OV-3 ovarian,5.43 µM
same,TGI,SK-OV-3 ovarian,28.3 µM
same,GI50,HCT-15 colon,4.05 µM
same,TGI,HCT-15 colon,19.5 µM
same,GI50,EKVX NSCLC,3.09 µM
same,TGI,EKVX NSCLC,12.3 µM
same,GI50,HOP-62 NSCLC,3.85 µM
same,TGI,HOP-62 NSCLC,11.6 µM
same,GI50,A498 renal,4.4 µM
same,TGI,A498 renal,16.8 µM
same,GI50,A549 NSCLC,4.07 µM
same,TGI,A549 NSCLC,> 100 µM
same,GI50,OVCAR-5 ovarian,7.57 µM
same,TGI,OVCAR-5 ovarian,26.7 µM
same,GI50,SNB-19 CNS,4.04 µM
same,TGI,SNB-19 CNS,21.7 µM
same,GI50,UO-31 renal,3.59 µM
same,TGI,UO-31 renal,13.5 µM
same,GI50,COLO 205 colon,4.33 µM
same,TGI,COLO 205 colon,17.2 µM
same,GI50,MDA-MB-468 breast,3.1 µM
same,TGI,MDA-MB-468 breast,8.43 µM
same,GI50,HL-60(TB) leukemia,1.73 µM
same,TGI,HL-60(TB) leukemia,3.46 µM
same,GI50,NCI/ADR-RES ovarian,2.55 µM
same,TGI,NCI/ADR-RES ovarian,9.38 µM
same,GI50,HCC-2998 colon,6.02 µM
same,TGI,HCC-2998 colon,21.2 µM
same,GI50,RXF 393 renal,2.02 µM
same,TGI,RXF 393 renal,4.91 µM
same,GI50,SK-MEL-5 melanoma,2.56 µM
same,TGI,SK-MEL-5 melanoma,7.94 µM
same,GI50,KM12 colon,3.62 µM
same,TGI,KM12 colon,13.2 µM
same,GI50,U251 glioblastoma,2.35 µM
same,TGI,U251 glioblastoma,5.72 µM
same,GI50,OVCAR-8 ovarian,3.57 µM
same,TGI,OVCAR-8 ovarian,13.3 µM
same,GI50,NCI-H522 lung,3.6 µM
same,TGI,NCI-H522 lung,15.2 µM
same,GI50,NCI-H226 lung,5.91 µM
same,TGI,NCI-H226 lung,20.7 µM

# Source: PubChem BioAssay (NCI)
